Data as given in the NIST ThermoML archive (doi:10.1021/je900998f).
Numbers after ± are expanded uncertainties.

Conditions: Liquid; for mass density / viscosity: 298.15 K; for mass density: 101.33 kPa, Vibrating tube method

| Compound | mass density [kg/m3] | viscosity [mPa·s] | viscosity (Capillary tube (Ostwald / Ubbelohde) method) [mPa·s] | vapor or sublimation pressure (351.44 K, Ebulliometric method (Recirculating still)) [kPa] |
| --- | --- | --- | --- | --- |
| CCOS(=O)(=O)[O-].CC[n+]1cccc(C)c1 [1-ethyl-3-methylpyridinium ethylsulfate] | 1222.26 ± 0.42 | 161.4 ± 8.4 |  |  |
| CCO [ethanol] | 785.46 ± 0.12 |  | 1.082 ± 0.073 | 101.33 ± 0.1 |
